Read-outs that look alike come from different tables or passages of the source.
Legend:
[1] = biological target: human Gal-1 (hGal-1) (Homo sapiens, UniProt P09382); assay: Competitive binding assay: biotinylated hGal-1 binding to microplate-adsorbed asialofetuin (ASF), spectrophotometric; settings: hGal-1 binding to asialofetuin; Table 15; R and S epimers of selected Examples also listed; read-out: IC50 (Galectin-1 inhibition)
How it was run: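 Spectrophotometric competition readout with ABTS after streptavidin-peroxidase (80 ng/mL, 1 h, 4 °C) detection of bound biotinylated hGal-1.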

[2] = biological target: biotinylated human Gal-3 (hGal-3) (Homo sapiens, UniProt P17931); assay: Competitive binding assay: biotinylated hGal-3 binding to microplate-adsorbed asialofetuin (ASF), spectrophotometric; settings: Gal-3 inhibition, read-out: IC50
biotinylated human Gal-3 (hGal-3), sequence (P17931 whole entry): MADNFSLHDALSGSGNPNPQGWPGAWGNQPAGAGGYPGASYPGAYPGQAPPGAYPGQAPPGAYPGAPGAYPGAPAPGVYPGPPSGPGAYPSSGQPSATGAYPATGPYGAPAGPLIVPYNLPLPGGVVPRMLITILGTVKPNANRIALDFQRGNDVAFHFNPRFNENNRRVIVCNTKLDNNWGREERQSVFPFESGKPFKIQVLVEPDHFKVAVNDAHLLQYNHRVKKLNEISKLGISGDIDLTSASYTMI
How it was run: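 Serially diluted compounds competed with asialofetuin on the plate for biotinylated human Gal-3 during a 3 h incubation at 4° C. Streptavidin-peroxidase with ABTS gave the spectrophotometric signal. IC50 values were averaged over repeat runs.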

human Gal-1 (hGal-1), sequence (P09382 whole entry): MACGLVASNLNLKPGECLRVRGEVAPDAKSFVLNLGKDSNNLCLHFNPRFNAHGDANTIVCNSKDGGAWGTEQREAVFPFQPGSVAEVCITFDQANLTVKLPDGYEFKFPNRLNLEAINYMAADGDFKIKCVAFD

IC50 [1] [nM]	IC50 ([2]; Table 4) [nM]	IC50 ([2]; Table 2) [nM]	IC50 ([2]; Table 5) [nM]	Structure (SMILES)
590	90	–	–	CN1CCC(O)(C(S[C@@H]2O[C@H](CO)[C@H](O)[C@H](n3cc(-c4cc(F)c(F)c(F)c4)nn3)[C@H]2O)C(=O)N(C)Cc2ccccc2)CC1 (stereo partly drawn) [Example 2.40.207., N-Benzyl-2-(((2S,3R,4S,5R,6R)-3,5-dihydroxy-6-(hydroxymethyl)-4-(4-(3,4,5-trifluorophenyl)-1H-1,2,3-triazol-1-yl)tetrahydro-2H-pyran-2-yl)thio)-2-(4-hydroxy-1-methylpiperidin-4-yl)-N-methylacetamide]
50	30	–	–	CN1CCC(O)(C(S[C@@H]2O[C@H](CO)[C@H](O)[C@H](n3cc(-c4cc(F)c(F)c(F)c4)nn3)[C@H]2O)C(=O)N2CCCCC2)CC1 (stereo partly drawn) [Example 2.40.208., 2-(((2S,3R,4S,5R,6R)-3,5-Dihydroxy-6-(hydroxymethyl)-4-(4-(3,4,5-trifluorophenyl)-1H-1,2,3-triazol-1-yl)tetrahydro-2H-pyran-2-yl)thio)-2-(4-hydroxy-1-methylpiperidin-4-yl)-1-(piperidin-1-yl)ethan-1-one]
230	120	–	–	CN1CCC(O)(C(S[C@@H]2O[C@H](CO)[C@H](O)[C@H](n3cc(-c4cc(F)c(F)c(F)c4)nn3)[C@H]2O)C(=O)N2CCc3ccccc32)CC1 (stereo partly drawn) [Example 2.40.209., 2-(((2S,3R,4S,5R,6R)-3,5-Dihydroxy-6-(hydroxymethyl)-4-(4-(3,4,5-trifluorophenyl)-1H-1,2,3-triazol-1-yl)tetrahydro-2H-pyran-2-yl)thio)-2-(4-hydroxy-1-methylpiperidin-4-yl)-1-(indolin-1-yl)ethan-1-one]
260	–	60	–	CC(C)CN(C)C(=O)C(S[C@@H]1O[C@H](CO)[C@H](O)[C@H](n2cc(-c3cc(F)c(F)c(F)c3)nn2)[C@H]1O)C1(O)CCOCC1 (stereo partly drawn) [Example 2.41.200., 2-(((2S,3R,4S,5R,6R)-3,5-Dihydroxy-6-(hydroxymethyl)-4-(4-(3,4,5-trifluorophenyl)-1H-1,2,3-triazol-1-yl)tetrahydro-2H-pyran-2-yl)thio)-2-(4-hydroxytetrahydro-2H-pyran-4-yl)-N-isobutyl-N-methylacetamide]
10900	–	4010	–	CC(C)CN(C)C(=O)[C@H](S[C@@H]1O[C@H](CO)[C@H](O)[C@H](n2cc(-c3cc(F)c(F)c(F)c3)nn2)[C@H]1O)C1(O)CCOCC1 [Example 2.41.200R., (R)-2-(((2S,3R,4S,5R,6R)-3,5-Dihydroxy-6-(hydroxymethyl)-4-(4-(3,4,5-trifluorophenyl)-1H-1,2,3-triazol-1-yl)tetrahydro-2H-pyran-2-yl)thio)-2-(4-hydroxytetrahydro-2H-pyran-4-yl)-N-isobutyl-N-methylacetamide]
110	–	50	–	CC(C)CN(C)C(=O)[C@@H](S[C@@H]1O[C@H](CO)[C@H](O)[C@H](n2cc(-c3cc(F)c(F)c(F)c3)nn2)[C@H]1O)C1(O)CCOCC1 [Example 2.41.200S., (S)-2-(((2S,3R,4S,5R,6R)-3,5-Dihydroxy-6-(hydroxymethyl)-4-(4-(3,4,5-trifluorophenyl)-1H-1,2,3-triazol-1-yl)tetrahydro-2H-pyran-2-yl)thio)-2-(4-hydroxytetrahydro-2H-pyran-4-yl)-N-isobutyl-N-methylacetamide]
1800	180	–	–	CN(C)C(=O)C(S[C@@H]1O[C@H](CO)[C@H](O)[C@H](n2cc(-c3cc(F)c(F)c(F)c3)nn2)[C@H]1O)C1(O)CCOCC1 (stereo partly drawn) [Example 2.41.201., 2-(((2S,3R,4S,5R,6R)-3,5-Dihydroxy-6-(hydroxymethyl)-4-(4-(3,4,5-trifluorophenyl)-1H-1,2,3-triazol-1-yl)tetrahydro-2H-pyran-2-yl)thio)-2-(4-hydroxytetrahydro-2H-pyran-4-yl)-N,N-dimethylacetamide]
> 100000	4100	–	–	CN(C)C(=O)[C@H](S[C@@H]1O[C@H](CO)[C@H](O)[C@H](n2cc(-c3cc(F)c(F)c(F)c3)nn2)[C@H]1O)C1(O)CCOCC1 [Example 2.41.201R., (R)-2-(((2S,3R,4S,5R,6R)-3,5-Dihydroxy-6-(hydroxymethyl)-4-(4-(3,4,5-trifluorophenyl)-1H-1,2,3-triazol-1-yl)tetrahydro-2H-pyran-2-yl)thio)-2-(4-hydroxytetrahydro-2H-pyran-4-yl)-N,N-dimethylacetamide]
210	60	–	–	CN(C)C(=O)[C@@H](S[C@@H]1O[C@H](CO)[C@H](O)[C@H](n2cc(-c3cc(F)c(F)c(F)c3)nn2)[C@H]1O)C1(O)CCOCC1 [Example 2.41.201S., (S)-2-(((2S,3R,4S,5R,6R)-3,5-Dihydroxy-6-(hydroxymethyl)-4-(4-(3,4,5-trifluorophenyl)-1H-1,2,3-triazol-1-yl)tetrahydro-2H-pyran-2-yl)thio)-2-(4-hydroxytetrahydro-2H-pyran-4-yl)-N,N-dimethylacetamide]
110	50	–	–	CCN(CC)C(=O)C(S[C@@H]1O[C@H](CO)[C@H](O)[C@H](n2cc(-c3cc(F)c(F)c(F)c3)nn2)[C@H]1O)C1(O)CCOCC1 (stereo partly drawn) [Example 2.41.202., 2-(((2S,3R,4S,5R,6R)-3,5-Dihydroxy-6-(hydroxymethyl)-4-(4-(3,4,5-trifluorophenyl)-1H-1,2,3-triazol-1-yl)tetrahydro-2H-pyran-2-yl)thio)-N,N-diethyl-2-(4-hydroxytetrahydro-2H-pyran-4-yl)acetamide]
420	–	–	90	CCN(C)C(=O)C(S[C@@H]1O[C@H](CO)[C@H](O)[C@H](n2cc(-c3cc(F)c(F)c(F)c3)nn2)[C@H]1O)C1(O)CCOCC1 (stereo partly drawn) [Example 2.41.203., 2-(((2S,3R,4S,5R,6R)-3,5-Dihydroxy-6-(hydroxymethyl)-4-(4-(3,4,5-trifluorophenyl)-1H-1,2,3-triazol-1-yl)tetrahydro-2H-pyran-2-yl)thio)-N-ethyl-2-(4-hydroxytetrahydro-2H-pyran-4-yl)-N-methylacetamide]
> 39800	–	–	4430	CCN(C)C(=O)[C@H](S[C@@H]1O[C@H](CO)[C@H](O)[C@H](n2cc(-c3cc(F)c(F)c(F)c3)nn2)[C@H]1O)C1(O)CCOCC1 [Example 2.41.203R., (R)-2-(((2S,3R,4S,5R,6R)-3,5-Dihydroxy-6-(hydroxymethyl)-4-(4-(3,4,5-trifluorophenyl)-1H-1,2,3-triazol-1-yl)tetrahydro-2H-pyran-2-yl)thio)-N-ethyl-2-(4-hydroxytetrahydro-2H-pyran-4-yl)-N-methylacetamide]
67	–	–	30	CCN(C)C(=O)[C@@H](S[C@@H]1O[C@H](CO)[C@H](O)[C@H](n2cc(-c3cc(F)c(F)c(F)c3)nn2)[C@H]1O)C1(O)CCOCC1 [Example 2.41.203S., (S)-2-(((2S,3R,4S,5R,6R)-3,5-Dihydroxy-6-(hydroxymethyl)-4-(4-(3,4,5-trifluorophenyl)-1H-1,2,3-triazol-1-yl)tetrahydro-2H-pyran-2-yl)thio)-N-ethyl-2-(4-hydroxytetrahydro-2H-pyran-4-yl)-N-methylacetamide]
950	210	–	–	CC1CCN1C(=O)C(S[C@@H]1O[C@H](CO)[C@H](O)[C@H](n2cc(-c3cc(F)c(F)c(F)c3)nn2)[C@H]1O)C1(O)CCOCC1 (stereo partly drawn) [Example 2.41.204., 2-(((2S,3R,4S,5R,6R)-3,5-Dihydroxy-6-(hydroxymethyl)-4-(4-(3,4,5-trifluorophenyl)-1H-1,2,3-triazol-1-yl)tetrahydro-2H-pyran-2-yl)thio)-2-(4-hydroxytetrahydro-2H-pyran-4-yl)-1-(2-methylazetidin-1-yl)ethan-1-one]
4900	1000	–	–	CC1CN(C(=O)[C@H](S[C@@H]2O[C@H](CO)[C@H](O)[C@H](n3cc(-c4cc(F)c(F)c(F)c4)nn3)[C@H]2O)C2(O)CCOCC2)C1 [Example 2.41.205R., (R)-2-(((2S,3R,4S,5R,6R)-3,5-Dihydroxy-6-(hydroxymethyl)-4-(4-(3,4,5-trifluorophenyl)-1H-1,2,3-triazol-1-yl)tetrahydro-2H-pyran-2-yl)thio)-2-(4-hydroxytetrahydro-2H-pyran-4-yl)-1-(3-methylazetidin-1-yl)ethan-1-one]
550	120	–	–	CC1CN(C(=O)[C@@H](S[C@@H]2O[C@H](CO)[C@H](O)[C@H](n3cc(-c4cc(F)c(F)c(F)c4)nn3)[C@H]2O)C2(O)CCOCC2)C1 [Example 2.41.205S., (S)-2-(((2S,3R,4S,5R,6R)-3,5-Dihydroxy-6-(hydroxymethyl)-4-(4-(3,4,5-trifluorophenyl)-1H-1,2,3-triazol-1-yl)tetrahydro-2H-pyran-2-yl)thio)-2-(4-hydroxytetrahydro-2H-pyran-4-yl)-1-(3-methylazetidin-1-yl)ethan-1-one]
1500	260	–	–	O=C(C(S[C@@H]1O[C@H](CO)[C@H](O)[C@H](n2cc(-c3cc(F)c(F)c(F)c3)nn2)[C@H]1O)C1(O)CCOCC1)N1CCC1 (stereo partly drawn) [Example 2.41.206., 1-(Azetidin-1-yl)-2-(((2S,3R,4S,5R,6R)-3,5-dihydroxy-6-(hydroxymethyl)-4-(4-(3,4,5-trifluorophenyl)-1H-1,2,3-triazol-1-yl)tetrahydro-2H-pyran-2-yl)thio)-2-(4-hydroxytetrahydro-2H-pyran-4-yl)ethan-1-one]
72	70	–	–	CN(Cc1ccccc1)C(=O)C(S[C@@H]1O[C@H](CO)[C@H](O)[C@H](n2cc(-c3cc(F)c(F)c(F)c3)nn2)[C@H]1O)C1(O)CCOCC1 (stereo partly drawn) [Example 2.41.207., N-Benzyl-2-(((2S,3R,4S,5R,6R)-3,5-dihydroxy-6-(hydroxymethyl)-4-(4-(3,4,5-trifluorophenyl)-1H-1,2,3-triazol-1-yl)tetrahydro-2H-pyran-2-yl)thio)-2-(4-hydroxytetrahydro-2H-pyran-4-yl)-N-methylacetamide]

Reference: patent US12410208B2, “(2-acetamidyl)thio-beta-D-galactopyranoside derivatives” (Idorsia Pharmaceuticals Ltd, priority 2020, dated 2025)
